Source: the supplement of paper PMC5844555

Assays:
Assay in all cases: 3' UTR reporter interaction score (median-centred robust z-score of log2 firefly/Renilla activity); higher = less repression of the 3' UTR reporter
Details in all cases: HEK293T; 48 h
BRCA2 = tested on: BRCA2
Procedure, shortened: (§1)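 In at least two independent screens, HEK293T cells in 96-well plates (10,000/well) were co-transfected with DharmaFECT Duo using 100 ng firefly luc2P reporter with the gene's 3' UTR, 20 ng Renilla pRL-TK control and 2.5 pmol miRNA mimic, and dual-luciferase activities were read at 48 h. The interaction score, averaged across screens, is the per-plate robust z-score (median, median absolute deviation) of the log firefly/Renilla ratio, median-centred per miRNA, with more negative indicating interaction.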

EZH2 = tested on: EZH2
Procedure, shortened: as §1

FBXW7 = tested on: FBXW7
Procedure, shortened: as §1

HRAS = tested on: HRAS
Procedure, shortened: as §1

MYB = tested on: MYB
Procedure, shortened: as §1

MYCN = tested on: MYCN
Procedure, shortened: as §1

MYC = tested on: MYC
Procedure, shortened: as §1

MYT1L = tested on: MYT1L
Procedure, shortened: as §1

NOTCH1 = tested on: NOTCH1
Procedure, shortened: as §1

PHF6 = tested on: PHF6
Procedure, shortened: as §1

PHOX2B = tested on: PHOX2B
Procedure, shortened: as §1

RB1 = tested on: RB1
Procedure, shortened: as §1

TP53 = tested on: TP53
Procedure, shortened: as §1

ZEB2 = tested on: ZEB2
Procedure, shortened: as §1

Sequence	3' UTR reporter interaction score (BRCA2)	3' UTR reporter interaction score (EZH2)	3' UTR reporter interaction score (FBXW7)	3' UTR reporter interaction score (HRAS)	3' UTR reporter interaction score (MYB)	3' UTR reporter interaction score (MYCN)	3' UTR reporter interaction score (MYC)	3' UTR reporter interaction score (MYT1L)	3' UTR reporter interaction score (NOTCH1)	3' UTR reporter interaction score (PHF6)	3' UTR reporter interaction score (PHOX2B)	3' UTR reporter interaction score (RB1)	3' UTR reporter interaction score (TP53)	3' UTR reporter interaction score (ZEB2)
ACUCAAAAUGGGGGCGCUUUCC	-0.27	0.137	-0.231	0.68	-0.497	-0.623	0.445	0.0549	-0.52	2.12	0.0383	0.824	-0.765	0.347
AAACUCUACUUGUCCUUCUGAGU	1.32	-0.108	2.09	0.16	0.312	-0.333	-0.658	-0.888	0.753	-0.863	0.571	0.409	0.757	-1.55
UAAGUGCUUCCAUGUUUGAGUGU	-0.334	-0.327	0.795	0.22	-0.941	0.678	-0.0168	-0.74	0.935	-0.0188	0.566	0.167	-0.124	1.47
GUUCUCCCAACGUAAGCCCAGC	-0.8	0.22	1.08	0.00988	-4.37	0.962	-0.299	0.882	-0.479	0.685	1.74	-0.277	0.732	-0.194
UGUAGUGUUUCCUACUUUAUGGA	-3.32	0.133	-0.472	0.941	0.85	1.22	0.753	1.44	-0.00364	-0.93	0.885	-0.511	-0.138	-2.54
CCUCUGGGCCCUUCCUCCAG	1.66	-0.302	-0.553	0.196	0.205	0.2	-0.307	-1.13	-0.555	1.9	-0.825	0.604	1.37	0.525
UAGAUAAAAUAUUGGUACCUG	0.0137	0.412	0.354	0.836	-0.19	0.037	0.271	-0.105	-0.186	-0.242	-1.45	-0.00826	0.578	-0.296
UAGCAGCGGGAACAGUUCUGCAG	0.681	-0.757	-2.86	-0.261	-2.27	0.142	0.339	-3.34	9.71e-17	0.822	-0.446	0.756	1.12	0.481
AAGCCUGCCCGGCUCCUCGGG	0.422	-0.223	0.255	0.291	0.0778	-0.588	0.642	-0.815	-0.439	-0.0107	0.478	-0.201	-1.82	1.11
UCAGUGCAUCACAGAACUUUGU	-1.11	-0.211	0.15	-0.998	-1.04	0.974	0.216	1.61	0.0134	0.428	-0.909	1.28	-0.15	1.9
UGGUUGACCAUAGAACAUGCGC	-0.794	-1.23	-0.743	-0.568	2.68	1.49	-0.769	3.19	2.11	0.184	1.74	3.51	-0.14	2.61
AGGGAUCGCGGGCGGGUGGCGGCCU	0.916	-0.298	-0.971	-0.484	0.376	-0.927	-0.321	-0.194	0.433	2.46	-1.25	-0.0484	0.628	-0.0578
UCUACAGUGCACGUGUCU	-0.808	-0.132	-0.208	-0.193	0.507	0.872	-0.224	0.894	-0.268	-1.18	1.13	0.634	0.119	0
ACUCCAUUUGUUUUGAUGAUGGA	-0.329	-0.0207	-0.453	-0.269	-0.2	0.165	-0.0596	-0.15	-0.518	0.594	0.953	-0.0878	0.239	0.912
AUUCAUUUGGUAUAAACCGCGAU	-0.573	-0.0582	-1.6	0.347	-0.684	0.523	0.404	-0.154	0.53	0.306	-0.197	0.747	-1.06	0.368
AACAUUCAUUGUUGUCGGUGGGUU	-0.763	-0.453	0.226	-0.818	0.819	-0.95	-0.122	1.2	0.549	0.446	0.761	0.277	-1.07	1.49
AUCCCUUGCAGGGGCUGUUGGGU	-0.445	0.197	-1.6	-0.0656	0.681	0.104	0.108	0.613	0.359	-0.0289	-1.62	-0.201	-0.855	1.78
CAGCAGCAAUUCAUGUUUUGAA	0.886	-0.709	-2.64	-0.93	-2.05	-0.622	-0.0621	-4.35	0.0853	2.81	1.12	0.649	0.52	0.626
AGCUACAUCUGGCUACUGGGUCUC	-0.144	-0.0907	0.465	1.2	-3.44	1.39	0.941	-0.398	0.41	-0.555	0.255	-3.28	0.614	-1.04

Sequence	3' UTR reporter interaction score (BRCA2)	3' UTR reporter interaction score (EZH2)	3' UTR reporter interaction score (FBXW7)	3' UTR reporter interaction score (HRAS)	3' UTR reporter interaction score (MYB)	3' UTR reporter interaction score (MYCN)	3' UTR reporter interaction score (MYC)	3' UTR reporter interaction score (MYT1L)	3' UTR reporter interaction score (NOTCH1)	3' UTR reporter interaction score (PHF6)	3' UTR reporter interaction score (PHOX2B)	3' UTR reporter interaction score (RB1)	3' UTR reporter interaction score (TP53)	3' UTR reporter interaction score (ZEB2)
ACAUAGAGGAAAUUCCACGUUU	1.12	0.213	-1.56	-0.449	-0.866	0.704	-0.782	-0.235	0.306	1.27	-1.91	0.821	1.11	-1.25
AAACCUGUGUUGUUCAAGAGUC	1.31	0.928	0.0167	0.374	-0.47	-0.75	-0.2	-0.496	0.0529	-0.148	-2.54	-0.803	0.0666	-1.07
CCCAGUGUUCAGACUACCUGUUC	0.218	-0.25	-0.85	-0.0015	1.64	0.198	0.666	2.99	0.374	0.112	-0.196	-1.81	-0.337	-0.517
AAUCCUUGGAACCUAGGUGUGAGU	0.643	0.207	-0.342	0.739	0.656	0.204	1.33	-4.11	-0.594	0.0671	-0.851	-0.422	-0.232	-0.171
UCUUUGGUUAUCUAGCUGUAUGA	-0.397	0.57	0.588	0.757	-0.0519	-0.305	-0.165	-0.093	-0.836	0.471	-0.756	0.127	-1.13	0.948
ACUUGGGCACUGAAACAAUGUCC	-0.973	-1.19	-0.0493	-0.00106	-0.103	0.382	0.112	0.0827	-4.15	1.39	0.564	0.0718	-1.34	1.78
GUGUCUGCUUCCUGUGGGA	0.42	-0.0979	0.999	-2.48	-0.0781	-0.382	-0.0744	0.553	-0.363	0.326	-0.344	-0.362	0.286	0.24
UAGCAGCACAGAAAUAUUGGC	-0.194	-0.914	-1.49	-1.27	-2.7	-0.51	-0.447	-1.5	-0.212	1.22	0.776	0.887	0.439	2.12
UGAUUGGUACGUCUGUGGGUAGA	-0.144	-0.0408	-0.747	0.535	1.17	0.569	-2.85	0.161	-4.51	-0.0836	-0.434	0.153	0.443	-0.485
UAGCUUAUCAGACUGAUGUUGA	-0.228	0.437	0.067	-0.166	0.65	-0.604	-0.465	-0.0152	-0.0874	0.231	0.355	0.943	-0.564	-0.0716
AAAGUGCUUCCUUUUAGAGGGUU	-0.282	-1.12	1.34	0.0494	-0.903	-0.338	-0.227	-0.468	0.779	0.00103	0.533	1.13	-0.295	0.894
AAAGUGCUUCCCUUUGGACUGU	0.671	-0.72	1.67	0.194	-1.07	-0.799	-0.227	-1.48	1.13	1.36	0.0276	1.36	0.0148	-0.113
UAUGUGGGAUGGUAAACCGCUU	-0.81	0.226	1.55	-0.809	1.45	0.212	0.022	-2.09	0.24	-0.864	-0.0868	0.217	-0.352	2.77
UAAUCUCAGCUGGCAACUGUG	1.06	-0.0854	-0.0147	0.474	-0.952	0.412	0.197	-0.796	-0.148	0.579	0.207	-0.947	-0.775	0.502
UGCUUCCUUUCAGAGGGU	-0.366	0.85	0.46	-0.697	1.13	0.0627	0.327	0.521	0.215	-0.232	-0.331	-0.583	-1.13	-0.357
UUAAUGCUAAUCGUGAUAGGGG	-0.67	1.21	0.373	0.347	-1.61	-0.313	0.891	-0.119	0.178	-0.0755	0.553	-0.667	0.0933	-0.523
GAAGUGCUUCGAUUUUGGGGUGU	0.244	-0.43	-0.253	0.659	0.012	0.643	0.42	-0.424	0.231	0.808	0.548	2.22	-1.53	0.378
GUCCAGUUUUCCCAGGAAUCCCUU	0.301	0.32	-0.33	-1.3	0.98	-0.357	-0.0253	0.164	0.816	0.802	-0.361	-0.0539	-0.611	-0.186
UUCUCCAAAAGAAAGCACUUUCUG	0.931	0.815	-0.49	0.348	-0.561	-0.288	-0.642	2.07	-0.152	1.85	1.93	1.42	-0.447	1.36
